Reference: the supplement of paper PMC10307832

Experiments:
Test in all cases: relative viability (nuclei count vs DMSO), 5 days (fraction); higher = more cells survive
A-427 = test system: A-427
How it was run: (§1)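 After 5 days of treatment, lung cancer cells in 1536-well plates were fixed and stained in a single step (final 0.05% Triton X-100, 1% formaldehyde, 1 ug/ml Hoechst) and their nuclei counted on 4× images. Treatment had been applied by pin tool the day after seeding as one drug alone or as a fixed anchor-drug dose with five library-drug doses (not always all listed) in √10 steps. Relative viability is the nuclei count of treated wells divided by that of vehicle wells, and values are medians of duplicate plates.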

CAL-12T = test system: CAL-12T
How it was run: as §1

COR-L 105 = test system: COR-L 105
How it was run: as §1

EMC-BAC-2 = test system: EMC-BAC-2
How it was run: as §1

HARA = test system: HARA
How it was run: as §1

HCC-366 = test system: HCC-366
How it was run: as §1

HCC-827 = test system: HCC-827
How it was run: as §1

HOP-62 = test system: HOP-62
How it was run: as §1

LCLC-103H = test system: LCLC-103H
How it was run: as §1

NCI-H1355 = test system: NCI-H1355
How it was run: as §1

NCI-H1437 = test system: NCI-H1437
How it was run: as §1

NCI-H1755 = test system: NCI-H1755
How it was run: as §1

NCI-H1792 = test system: NCI-H1792
How it was run: as §1

NCI-H1915 = test system: NCI-H1915
How it was run: as §1

NCI-H1975 = test system: NCI-H1975
How it was run: as §1

NCI-H2009 = test system: NCI-H2009
How it was run: as §1

NCI-H2228 = test system: NCI-H2228
How it was run: as §1

NCI-H23 = test system: NCI-H23
How it was run: as §1

NCI-H460 = test system: NCI-H460
How it was run: as §1

NCI-H727 = test system: NCI-H727
How it was run: as §1

SK-LU-1 = test system: SK-LU-1
How it was run: as §1

SW 1573 = test system: SW 1573
How it was run: as §1

Structure (SMILES): NC(=O)Nc1cc(-c2cccc(F)c2)sc1C(=O)N[C@H]1CCCNC1 [AZD7762] + C[C@@H](Oc1cc(-c2cnn(C3CCNCC3)c2)cnc1N)c1c(Cl)ccc(F)c1Cl [Crizotinib] (partner 1 µM)
- relative viability (A-427; first compound 0.01 µM): 1.01
- relative viability (A-427; first compound 0.03162 µM): 0.869
- relative viability (A-427; first compound 0.1 µM): 0.992
- relative viability (A-427; first compound 0.3162 µM): 0.815
- relative viability (A-427; first compound 1 µM): 0.386
- relative viability (CAL-12T; first compound 0.01 µM): 0.735
- relative viability (CAL-12T; first compound 0.03162 µM): 0.554
- relative viability (CAL-12T; first compound 0.1 µM): 0.486
- relative viability (CAL-12T; first compound 0.3162 µM): 0.33
- relative viability (CAL-12T; first compound 1 µM): 0.105
- relative viability (COR-L 105; first compound 0.01 µM): 0.877
- relative viability (COR-L 105; first compound 0.03162 µM): 0.772
- relative viability (COR-L 105; first compound 0.1 µM): 0.591
- relative viability (COR-L 105; first compound 0.3162 µM): 0.406
- relative viability (COR-L 105; first compound 1 µM): 0.271
- relative viability (EMC-BAC-2; first compound 0.01 µM): 0.852
- relative viability (EMC-BAC-2; first compound 0.03162 µM): 0.718
- relative viability (EMC-BAC-2; first compound 0.1 µM): 0.777
- relative viability (EMC-BAC-2; first compound 0.3162 µM): 0.797
- relative viability (EMC-BAC-2; first compound 1 µM): 0.706
- relative viability (HARA; first compound 0.01 µM): 1.11
- relative viability (HARA; first compound 0.03162 µM): 0.98
- relative viability (HARA; first compound 0.1 µM): 0.894
- relative viability (HARA; first compound 0.3162 µM): 1.01
- relative viability (HARA; first compound 1 µM): 0.25
- relative viability (HCC-366; first compound 0.01 µM): 0.678
- relative viability (HCC-366; first compound 0.03162 µM): 0.478
- relative viability (HCC-366; first compound 0.1 µM): 0.542
- relative viability (HCC-366; first compound 0.3162 µM): 0.323
- relative viability (HCC-366; first compound 1 µM): 0.0525
- relative viability (HCC-827; first compound 0.01 µM): 0.948
- relative viability (HCC-827; first compound 0.03162 µM): 0.904
- relative viability (HCC-827; first compound 0.1 µM): 0.933
- relative viability (HCC-827; first compound 0.3162 µM): 0.965
- relative viability (HCC-827; first compound 1 µM): 0.843
- relative viability (HOP-62; first compound 0.01 µM): 0.786
- relative viability (HOP-62; first compound 0.03162 µM): 1.03
- relative viability (HOP-62; first compound 0.1 µM): 1.17
- relative viability (HOP-62; first compound 0.3162 µM): 1.1
- relative viability (HOP-62; first compound 1 µM): 1.16
- relative viability (LCLC-103H; first compound 0.01 µM): 1.15
- relative viability (LCLC-103H; first compound 0.03162 µM): 0.994
- relative viability (LCLC-103H; first compound 0.1 µM): 1.08
- relative viability (LCLC-103H; first compound 0.3162 µM): 1.01
- relative viability (LCLC-103H; first compound 1 µM): 1.04
- relative viability (NCI-H1355; first compound 0.01 µM): 1.02
- relative viability (NCI-H1355; first compound 0.03162 µM): 1.02
- relative viability (NCI-H1355; first compound 0.1 µM): 1.01
- relative viability (NCI-H1355; first compound 0.3162 µM): 1.14
- relative viability (NCI-H1355; first compound 1 µM): 1.03
- relative viability (NCI-H1437; first compound 0.01 µM): 0.955
- relative viability (NCI-H1437; first compound 0.03162 µM): 0.787
- relative viability (NCI-H1437; first compound 0.1 µM): 1.01
- relative viability (NCI-H1437; first compound 0.3162 µM): 0.869
- relative viability (NCI-H1437; first compound 1 µM): 1.02
- relative viability (NCI-H1755; first compound 0.01 µM): 0.901
- relative viability (NCI-H1755; first compound 0.03162 µM): 0.872
- relative viability (NCI-H1755; first compound 0.1 µM): 0.929
- relative viability (NCI-H1755; first compound 0.3162 µM): 0.853
- relative viability (NCI-H1755; first compound 1 µM): 0.508
- relative viability (NCI-H1792; first compound 0.01 µM): 1.06
- relative viability (NCI-H1792; first compound 0.03162 µM): 1
- relative viability (NCI-H1792; first compound 0.1 µM): 0.975
- relative viability (NCI-H1792; first compound 0.3162 µM): 0.646
- relative viability (NCI-H1792; first compound 1 µM): 1.12
- relative viability (NCI-H1915; first compound 0.01 µM): 0.93
- relative viability (NCI-H1915; first compound 0.03162 µM): 0.919
- relative viability (NCI-H1915; first compound 0.1 µM): 0.891
- relative viability (NCI-H1915; first compound 0.3162 µM): 0.944
- relative viability (NCI-H1915; first compound 1 µM): 0.823
- relative viability (NCI-H1975; first compound 0.01 µM): 1.06
- relative viability (NCI-H1975; first compound 0.03162 µM): 0.937
- relative viability (NCI-H1975; first compound 0.1 µM): 0.837
- relative viability (NCI-H1975; first compound 0.3162 µM): 0.903
- relative viability (NCI-H1975; first compound 1 µM): 0.638
- relative viability (NCI-H2009; first compound 0.01 µM): 1.04
- relative viability (NCI-H2009; first compound 0.03162 µM): 1.13
- relative viability (NCI-H2009; first compound 0.1 µM): 1.07
- relative viability (NCI-H2009; first compound 0.3162 µM): 0.954
- relative viability (NCI-H2009; first compound 1 µM): 0.38
- relative viability (NCI-H2228; first compound 0.01 µM): 0.423
- relative viability (NCI-H2228; first compound 0.03162 µM): 0.588
- relative viability (NCI-H2228; first compound 0.1 µM): 0.461
- relative viability (NCI-H2228; first compound 0.3162 µM): 0.436
- relative viability (NCI-H2228; first compound 1 µM): 0.208
- relative viability (NCI-H23; first compound 0.01 µM): 0.687
- relative viability (NCI-H23; first compound 0.03162 µM): 0.517
- relative viability (NCI-H23; first compound 0.1 µM): 0.542
- relative viability (NCI-H23; first compound 0.3162 µM): 0.323
- relative viability (NCI-H23; first compound 1 µM): 0.203
- relative viability (NCI-H460; first compound 0.01 µM): 1.13
- relative viability (NCI-H460; first compound 0.03162 µM): 0.879
- relative viability (NCI-H460; first compound 0.1 µM): 0.758
- relative viability (NCI-H460; first compound 0.3162 µM): 0.593
- relative viability (NCI-H460; first compound 1 µM): 0.0457
- relative viability (NCI-H727; first compound 0.01 µM): 0.984
- relative viability (NCI-H727; first compound 0.03162 µM): 0.865
- relative viability (NCI-H727; first compound 0.1 µM): 0.758
- relative viability (NCI-H727; first compound 0.3162 µM): 0.519
- relative viability (NCI-H727; first compound 1 µM): 0.259
- relative viability (SK-LU-1; first compound 0.01 µM): 0.991
- relative viability (SK-LU-1; first compound 0.03162 µM): 0.714
- relative viability (SK-LU-1; first compound 0.1 µM): 0.38
- relative viability (SK-LU-1; first compound 0.3162 µM): 0.226
- relative viability (SK-LU-1; first compound 1 µM): 0.285
- relative viability (SW 1573; first compound 0.01 µM): 0.976
- relative viability (SW 1573; first compound 0.03162 µM): 0.879
- relative viability (SW 1573; first compound 0.1 µM): 0.907
- relative viability (SW 1573; first compound 0.3162 µM): 0.934
- relative viability (SW 1573; first compound 1 µM): 0.738
